In patent publication US20100286145A1, “ISOPHTHALAMIDE DERIVATIVES INHIBITING BETA-SECRETASE ACTIVITY” (CoMentis, Inc., priority 2007, published 2010):
Like-named read-outs stand apart in the source and are kept apart here.

Assays:
memapsin 2 = memapsin 2 (Homo sapiens, UniProt P56817); assay: Inhibition of memapsin 2 beta-secretase activity (fluorogenic substrate FS-2); type: biochemical; settings: memapsin 2, pH 4, 37° C., read-out: M2Ki
Outline: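 Kinetic fluorogenic assay: hydrolysis of the MCA/DNP-labelled APP Swedish-variant peptide FS-2 monitored as fluorescence rise at 37° C, pH 4, after 20 min enzyme–compound preincubation. Relative rates fitted with a tight-binding inhibitor model.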

[1] = test system: Aβ production in Chinese hamster ovary cells that over-express human APP695 with the London and Swedish mutations; assay: Cellular Aβ IC50 determination (Aβ40 sandwich ELISA); type: cell-based; settings: Cricetulus griseus; cellular Aβ production; read-out: IC50
Outline: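 Aβ40 in media quantified by sandwich ELISA, normalized to control incubations and fitted with a 4-parameter IC50 model. Compounds dosed to a final concentration near 4 μM (0.4% DMSO) on CHO cells expressing human APP695 (London and Swedish mutants) seeded at 10% confluency.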

memapsin 2, sequence (P56817 46-501): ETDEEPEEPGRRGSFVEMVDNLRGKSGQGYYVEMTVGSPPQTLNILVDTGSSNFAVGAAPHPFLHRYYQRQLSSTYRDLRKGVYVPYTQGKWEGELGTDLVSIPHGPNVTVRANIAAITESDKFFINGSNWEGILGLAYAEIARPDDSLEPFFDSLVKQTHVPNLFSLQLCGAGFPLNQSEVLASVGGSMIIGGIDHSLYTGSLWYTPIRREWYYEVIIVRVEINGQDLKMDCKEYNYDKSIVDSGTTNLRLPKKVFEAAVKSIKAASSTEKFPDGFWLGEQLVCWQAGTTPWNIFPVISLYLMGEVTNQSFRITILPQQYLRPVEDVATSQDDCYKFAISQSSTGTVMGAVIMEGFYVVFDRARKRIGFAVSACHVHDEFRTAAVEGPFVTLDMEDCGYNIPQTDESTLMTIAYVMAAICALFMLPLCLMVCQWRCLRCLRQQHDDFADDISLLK

SMILES	Ki (memapsin 2; 20 minutes pre-incubation)	IC50 [1]	Ki (memapsin 2; fluorogenic substrate FS-2)
C=C(C)c1cc(CNC[C@@H](O)[C@H](Cc2ccccc2)NC(=O)c2cccc(C(=O)N(C)Cc3nc(C)cs3)c2)c[n+]([O-])c1 [Compound 269, 3-(((2R,3S)-2-hydroxy-3-(3-(methyl((4-methylthiazol-2-yl)methyl)carbamoyl)benzamido)-4-phenylbutylamino)methyl)-5-(prop-1-en-2-yl)pyridine 1-oxide]	–	< 1 µM	< 0.3 µM
COc1cccc(CNC[C@@H](O)[C@H](Cc2ccccc2)NC(=O)c2cc(CO)cc(C(=O)N(C)Cc3nc(C)cs3)c2)c1 [Compound 49, N1-((2S,3R)-3-hydroxy-4-(3-methoxybenzylamino)-1-phenylbutan-2-yl)-5-(hydroxymethyl)-N3-methyl-N3-((4-methylthiazol-2-yl)methyl)isophthalamide]	< 0.3 µM	< 1 µM	–
Cc1csc(CN(C)C(=O)c2cccc(C(=O)N[C@@H](Cc3ccccc3)[C@H](O)CNCc3cncc(F)c3)c2)n1 [Compound 225, N1-((2S,3R)-4-((5-fluoropyridin-3-yl)methylamino)-3-hydroxy-1-phenylbutan-2-yl)-N3-methyl-N3-((4-methylthiazol-2-yl)methyl)isophthalamide]	–	1 to 5 µM	< 0.3 µM
Cc1csc(CN(C)C(=O)c2cccc(C(=O)N[C@@H](Cc3ccccc3)[C@H](O)CNCc3cncc(Br)c3)c2)n1 [Compound 158, N1-((2S,3R)-4-((5-bromopyridin-3-yl)methylamino)-3-hydroxy-1-phenylbutan-2-yl)-N3-methyl-N3-((4-methylthiazol-2-yl)methyl)isophthalamide]	< 0.3 µM	< 1 µM	–
CN(Cc1nc(CF)cs1)C(=O)c1cccc(C(=O)N[C@@H](Cc2ccccc2)[C@H](O)CNCc2cncc(C(F)(F)F)c2)c1 [Compound 280, N1-((4-(fluoromethyl)thiazol-2-yl)methyl)-N3-((2S,3R)-3-hydroxy-1-phenyl-4-((5-(trifluoromethyl)pyridin-3-yl)methylamino)butan-2-yl)-N1-methylisophthalamide]	–	< 1 µM	< 0.3 µM
Cc1csc(CN(C)C(=O)c2cccc(C(=O)N[C@@H](Cc3ccccc3)[C@H](O)CNCc3cncc(C(F)(F)F)c3)c2)n1 [Compound 23, N1-((2S,3R)-3-hydroxy-1-phenyl-4-((5-(trifluoromethyl)pyridin-3-yl)methylamino)butan-2-yl)-N3-methyl-N3-((4-methylthiazol-2-yl)methyl)isophthalamide]	< 0.3 µM	< 1 µM	–
Cc1csc(CN(C)C(=O)c2cccc(C(=O)N[C@@H](Cc3ccccc3)[C@H](O)CNCc3cncc(C(C)(C)F)c3)c2)n1 [Compound 92, N1-((2S,3R)-4-((5-(2-fluoropropan-2-yl)pyridin-3-yl)methylamino)-3-hydroxy-1-phenylbutan-2-yl)-N3-methyl-N3-((4-methylthiazol-2-yl)methyl)isophthalamide]	< 0.3 µM	< 1 µM	–
Cc1csc(CN(C)C(=O)c2cc(C(=O)N[C@@H](Cc3ccccc3)[C@H](O)CNCc3cncc(C(C)(C)C)c3)cc(N(C)C)c2)n1 [Compound 226, N1-((2S,3R)-4-((5-tert-butylpyridin-3-yl)methylamino)-3-hydroxy-1-phenylbutan-2-yl)-5-(dimethylamino)-N3-methyl-N3-((4-methylthiazol-2-yl)methyl)isophthalamide]	–	< 1 µM	< 0.3 µM
COc1cccc(CNC[C@@H](O)[C@H](Cc2ccccc2)NC(=O)c2cccc(C(=O)N(C)Cc3ccn(C)n3)c2)c1 [Compound 61, N1-((2S,3R)-3-hydroxy-4-(3-methoxybenzylamino)-1-phenylbutan-2-yl)-N3-methyl-N3-((1-methyl-1H-pyrazol-3-yl)methyl)isophthalamide]	< 0.3 µM	1 to 5 µM	–
Cc1csc(CN(C)C(=O)c2cc(C(=O)N[C@@H](Cc3ccccc3)[C@H](O)CNCc3cccc(C(F)(F)F)c3)cc(N3CCCC3=O)c2)n1 [Compound 233, N1-((2S,3R)-3-hydroxy-1-phenyl-4-(3-(trifluoromethyl)benzylamino)butan-2-yl)-N3-methyl-N3-((4-methylthiazol-2-yl)methyl)-5-(2-oxopyrrolidin-1-yl)isophthalamide]	–	< 1 µM	< 0.3 µM
CCN(CC)c1cc(C(=O)N[C@@H](Cc2ccccc2)[C@H](O)CNCc2cccc(OC)c2)cc(C(=O)N(C)Cc2nc(C)cs2)c1 [Compound 169, 5-(diethylamino)-N1-((2S,3R)-3-hydroxy-4-(3-methoxybenzylamino)-1-phenylbutan-2-yl)-N3-methyl-N3-((4-methylthiazol-2-yl)methyl)isophthalamide]	< 0.3 µM	< 1 µM	–
Cc1csc(CN(C)C(=O)c2cccc(C(=O)N[C@@H](Cc3ccccc3)[C@H](O)CNCc3cccc(Cl)c3)c2)n1 [Compound 104, N1-((2S,3R)-4-(3-chlorobenzylamino)-3-hydroxy-1-phenylbutan-2-yl)-N3-methyl-N3-((4-methylthiazol-2-yl)methyl)isophthalamide]	< 0.3 µM	< 1 µM	–
Cc1csc(CN(C)C(=O)c2cc(C(=O)N[C@@H](Cc3ccccc3)[C@H](O)CNCc3cccc(C(C)(C)C)c3)cc(N(C)C)c2)n1 [Compound 268, N1-((2S,3R)-4-(3-tert-butylbenzylamino)-3-hydroxy-1-phenylbutan-2-yl)-5-(dimethylamino)-N3-methyl-N3-((4-methylthiazol-2-yl)methyl)isophthalamide]	–	< 1 µM	< 0.3 µM
COc1cccc(CNC[C@@H](O)[C@H](Cc2ccccc2)NC(=O)c2cc(N)cc(C(=O)N(C)Cc3nc(C)cs3)c2)c1 [Compound 34, 5-amino-N1-((2S,3R)-3-hydroxy-4-(3-methoxybenzylamino)-1-phenylbutan-2-yl)-N3-methyl-N3-((4-methylthiazol-2-yl)methyl)isophthalamide]	> 0.501 µM	1 to 5 µM	–
Cc1csc(CN(C)C(=O)c2cccc(C(=O)N[C@@H](Cc3ccccc3)[C@H](O)CNCc3cccc(I)c3)c2)n1 [Compound 97, N1-((2S,3R)-3-hydroxy-4-(3-iodobenzylamino)-1-phenylbutan-2-yl)-N3-methyl-N3-((4-methylthiazol-2-yl)methyl)isophthalamide]	< 0.3 µM	< 1 µM	–
Cc1csc(CN(C)C(=O)c2cccc(C(=O)N[C@@H](Cc3ccccc3)[C@H](O)CNCc3cc(C(C)C)cnc3F)c2)n1 [Compound 56, N1-((2S,3R)-4-((2-fluoro-5-isopropylpyridin-3-yl)methylamino)-3-hydroxy-1-phenylbutan-2-yl)-N3-methyl-N3-((4-methylthiazol-2-yl)methyl)isophthalamide]	< 0.3 µM	< 1 µM	–

Second part, the compound after the results:

Ki (memapsin 2; 20 minutes pre-incubation)	IC50 [1]	Ki (memapsin 2; fluorogenic substrate FS-2)	SMILES
< 0.3 µM	< 1 µM	–	Cc1coc(CN(C)C(=O)c2cccc(C(=O)N[C@@H](Cc3ccccc3)[C@H](O)CNCc3cncc(C(C)C)c3)c2)n1 [Compound 95, N1-((2S,3R)-3-hydroxy-4-((5-isopropylpyridin-3-yl)methylamino)-1-phenylbutan-2-yl)-N3-methyl-N3-((4-methyloxazol-2-yl)methyl)isophthalamide]
–	< 1 µM	< 0.3 µM	Cc1csc(CN(C)C(=O)c2cc(C(=O)N[C@@H](Cc3ccccc3)[C@H](O)CNCc3cncc(C(C)C)c3)cc(-c3cccn3C)c2)n1 [Compound 257, N1-((2S,3R)-3-hydroxy-4-((5-isopropylpyridin-3-yl)methylamino)-1-phenylbutan-2-yl)-N3-methyl-5-(1-methyl-1H-pyrrol-2-yl)-N3-((4-methylthiazol-2-yl)methyl)isophthalamide]
–	< 1 µM	< 0.3 µM	Cc1csc(CN(C)C(=O)c2cccc(C(=O)N[C@@H](Cc3ccccc3)[C@H](O)CNCc3cc(Cl)ccc3F)c2)n1 [Compound 261, N1-((2S,3R)-4-(5-chloro-2-fluorobenzylamino)-3-hydroxy-1-phenylbutan-2-yl)-N3-methyl-N3-((4-methylthiazol-2-yl)methyl)isophthalamide]
< 0.3 µM	< 1 µM	–	Cc1csc(CN(C)C(=O)c2cccc(C(=O)N[C@@H](Cc3ccccc3)[C@H](O)CNCc3cncc(CCC(C)C)c3)c2)n1 [Compound 68, N1-((2S,3R)-3-hydroxy-4-((5-isopentylpyridin-3-yl)methylamino)-1-phenylbutan-2-yl)-N3-methyl-N3-((4-methylthiazol-2-yl)methyl)isophthalamide]
–	< 1 µM	< 0.3 µM	Cc1csc(CN(C)C(=O)c2cc(C(=O)N[C@@H](Cc3ccccc3)[C@H](O)CNCc3cncc(C(C)C)c3)cc(-c3cccc(Cl)c3)c2)n1 [Compound 272, 3′-chloro-N3-((2S,3R)-3-hydroxy-4-((5-isopropylpyridin-3-yl)methylamino)-1-phenylbutan-2-yl)-N5-methyl-N5-((4-methylthiazol-2-yl)methyl)biphenyl-3,5-dicarboxamide]
< 0.3 µM	< 1 µM	–	Cc1csc(CN(C)C(=O)c2cc(C(=O)N[C@@H](Cc3ccccc3)[C@H](O)CNCc3cncc(C(C)C)c3)cc(N3CCCC3)c2)n1 [Compound 180, N1-((2S,3R)-3-hydroxy-4-((5-isopropylpyridin-3-yl)methylamino)-1-phenylbutan-2-yl)-N3-methyl-N3-((4-methylthiazol-2-yl)methyl)-5-(pyrrolidin-1-yl)isophthalamide]
< 0.3 µM	< 1 µM	–	COc1cccc(CNC[C@@H](O)[C@H](Cc2ccccc2)NC(=O)c2cc(C(=O)N(C)Cc3nc(C)cs3)cc(-c3ncco3)c2)c1 [Compound 85, N1-((2S,3R)-3-hydroxy-4-(3-methoxybenzylamino)-1-phenylbutan-2-yl)-N3-methyl-N3-((4-methylthiazol-2-yl)methyl)-5-(oxazol-2-yl)isophthalamide]
